Counter-ions that a name gives are not always drawn.
What was measured:
[1] = test system: Chinese Hamster Ovary (CHO) cells; assay: Transfection of CHO cells using lipopolyplexes, β-galactosidase reporter gene expression; format: cell-based
Text: Transfection of Chinese Hamster Ovary (CHO) Cells Using Lipopolyplexes
Plasmid pEGlacZ containing the bacterial β-galactosidase gene under the control of the human cytomegalovirus immediate early promoter was constructed using standard molecular cloning techniques. The 7676 base pair (bp) plasmid was derived by cleavage of pGFP-N1 (Clontech) with HindIII and BclI to remove the reporter gene fragment. The β-galactosidase coding region from pSV-β-galactosidase (Promega) was then inserted via a HindIII to BamHI fragment. Plasmid DNA was then purified using an anion-exchange column (Qiagen Ltd). The average molecular weight per base pair was calculated to be 620.84 Da (310.5 Da for a monophosphorylated nucleotide). The amount of negative charge on the plasmid was then determined on the basis that a single negative charge is associated with each nucleotide.
[…] Lipid films were formed by rotary evaporation at 60° C. and further dried on a freeze drier overnight. Rehydration of the lipid film was performed by adding 4 mL of deionised water and […] 1M NaOH at 60° C. with vigorous agitation in the presence of […] diameter glass beads, taking care to maintain pH in the range 7.5 to 8.0, resulting in the formation of multi-lamellar vesicles (MLVs).
Stock solutions of R26 peptide as a DNA condensing agent at 144 μg/ml and plasmid DNA at 60 μg/ml were prepared in de-ionized water. Equal volumes of each were mixed by adding the plasmid DNA drop-wise to the R26 solution with vortexing. The charge ratio of the polyplex was 3.9:1 (peptide positive charged residues to DNA negative charged phosphates).
The polyplex preparation was diluted in 10 mM HEPES buffer pH 8 to 15 μg/ml DNA equivalent. […] Lipopolyplexes were formed by adding equal volumes of polyplex solution drop-wise to liposome suspension with vortexing.
CHO cells were seeded into 24-wellplates at 100 000 cells per well in Opti-MEM (Gibco BRL) media containing 10% dialysed foetal calf serum (FCS, Gibco BRL) and maintained 37° C. in 5% CO2 incubator for 24 h before the experiment. The adherent cells were washed once in Opti-MEM (Gibco BRL) prior to transfection. Washed medium was removed and replaced with 0.5 ml of Opti-MEM to which 167 μl of lipopolyplex was added ([…]). Individual lipopolyplex preparations were tested in triplicate wells. Cells were incubated for a further 4 h at 37° C. in 5% CO2 before removal of the medium and non-cell associated lipopolyplex and addition of 1 ml of fresh medium (Dulbecco's modified Eagle's medium (DMEM), plus glutamate, asparagine, adenosine, guanosine, cytidine, uridine, thymidine and 10% FCS.
Cells were cultured for a further 72 h before harvesting, the medium was aspirated and the cells washed twice with 1 ml phosphate buffered saline. Cells were lysed by the addition of 200 μl per well of lysis buffer (Promega) and the plate was agitated on an orbital mixer for 15 min. The lysates were transferred to individual Eppendorf tubes, taking care to remove attached cells by scraping with a pipette tip prior to removal. Cell debris was removed by centrifugation in a microfuge for 5 min followed by transfer of the supernatant into clean Eppendorf tubes.
Levels of β-galactosidase (β-gal) activity were determined using a colorimetric enzyme assay kit (Promega) as follows: 50 μl of cell extract was incubated with the kit substrate, O-nitrophenyl-β-D-galactopyranoside in buffer solution for 30 min at 37° C. The reaction was stopped by the addition of 150 μl of 1M sodium carbonate and the absorbance measured at 420 nm (Multiskan Ascent plate reader, Labsystems). Absorbance values were interpolated from a calibration curve to give enzyme activity in mU per ml. In turn these values were normalised in reference to lysate protein concentration as determined by a BCA assay kit (Pierce) and expressed as mU of β-gal per mg of protein.
An anionic liposome composition was evaluated comprising DOPC and CHEMS in the presence and absence of Compound 2. […]

| melting point | SMILES | reporter gene expression ([1]; Example 22, FIG. 1, cholesterol/oleic acid totally substituted with Compound 2 at 40 mol %) | reporter gene expression levels ([1]; Example 22, FIG. 1, higher lipid to DNA ratios (above 2:1), exception: 5:1 lipid to DNA with 20 mol % Compound 2) | reporter gene expression ([1]; Example 22, FIG. 1, lipid to DNA ratio 2:1, Compound 2 content 1 to 40 mol %) | expression of β-galactosidase ([1]; Example 22, FIG. 1, lipopolyplexes with cholesterol, oleic acid and DOPC, 1 mol % Compound 2) | levels of β-galactosidase expression ([1]; Example 23, FIG. 2, DOPC/CHEMS lipopolyplexes, 20 mol % Compound 2, lipid to DNA ratios 0.6:1 to 5.5:1) | transfection enhancement via endosomolytic properties ([1]; overall conclusion from Examples 22 and 23) |
| --- | --- | --- | --- | --- | --- | --- | --- |
| 27 to 27.5 °C | CCCCCCCCCCCCCCCCCCOC[C@@H](COP(=O)(OCCCCCCCCCCCc1cc(CC(C)(C)C(=O)OC)cc(CC(C)(C)C(=O)OC)c1)Oc1ccccc1Cl)OCCCCCCCCCCCCCCCCCC (stereo partly shown) |  |  |  |  |  |  |
|  | CC(C)CCCC(C)C1CCC2C3CC=C4C[C@H](OP(=O)(O)OCCCCCCCCCCCc5cc(CC(C)(C)C(=O)O)cc(CC(C)(C)C(=O)O)c5)CC[C@]4(C)C3CC[C@]12C (stereo partly drawn) [Compound 2, 3,3′-(5-(11-(((((3R,10R,13R)-10,13-Dimethyl-17-(6-methylheptan-2-yl)-2,3,4,7,8,9,10,11,12,13,14,15,16,17-tetradecahydro-1H-cyclopenta[a]phenanthren-3-yl)oxy)(hydroxy)phosphoryl)oxy)undecyl)-1,3-phenylene)bis(2,2-dimethylpropanoic acid), ammonium salt] | highest | not significant | increased with increasing content of Compound 2 | little or no expression | high, significant levels | confirming the effectiveness of Compound 2 as a transfection enhancing agent |
